Test results: PubChem BioAssay (NCI)
Several values for one entry are separate records, joined by “and”; a condition that tells them apart may be missing. Equal entries are not always repeated.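 Tested at 5 concentrations; 48 h exposure; 96-well plates; endpoints linearly interpolated, else capped at highest concentration. GI50 marks 50% less growth. At the TGI there is no net growth.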

What was measured:
Assay in all cases: DTP human tumour cell line panel, 48 h
[1] = tested on: SNB-19 CNS
[2] = tested on: IGROV1 ovarian
[3] = tested on: HS 578T breast
[4] = tested on: T-47D breast
[5] = tested on: M14 melanoma
[6] = tested on: HL-60(TB) leukemia
[7] = tested on: OVCAR-4 ovarian
[8] = tested on: SK-MEL-2 melanoma
[9] = tested on: SK-MEL-28 melanoma
[10] = tested on: BT-549 breast

SMILES | GI50 [1] [µM] | TGI [1] | GI50 [2] [µM] | TGI [2] | GI50 [3] [µM] | TGI [3] | GI50 [4] [µM] | TGI [4] [µM] | GI50 [5] [µM] | TGI [5] | GI50 [6] [µM] | TGI [6] | GI50 [7] [µM] | TGI [7] [µM] | GI50 [8] [µM] | TGI [8] | GI50 [9] [µM] | TGI [9] | GI50 [10] [µM] | TGI [10]
CC(C)=CCC/C(C)=C/CC/C(C)=C/CSc1ccccc1C(=O)O | 39.7 | > 100 µM and 41.1 µM | 29.3 | 70.5 µM and 35.5 µM | 33 | > 100 µM and 44.5 µM | 33.6 | > 91.3 | 25.6 | > 95 µM and 40.6 µM | 18.6 | 41.4 µM and 67.1 µM | 31.5 | > 100 | 22.6 | 45.4 µM and 29.4 µM | 25.7 | 62 µM and 54.3 µM | 19.4 | 40.4 µM and 32.2 µM
O=C1C=CC(=Nc2cc(Br)c(O)c(Br)c2)C=C1 | 44.2 | > 100 µM | 22.7 | 68 µM | 32.1 | > 100 µM | 12.4 | 41.4 | 23.9 | > 100 µM | 7.65 | 51.2 µM | 43 | > 100 | 23 | 75.2 µM | 31.7 | > 100 µM | 16.4 | 74.8 µM
O=C(Cc1ccc(F)c(F)c1)Nc1cc(C2(C(F)(F)F)CC2)nn1Cc1ccccc1 | 4.54 | > 15 µM | 4.47 | > 15 µM | 1.53 | 10.1 µM | 2.96 | 13 | 5.66 | > 15 µM | 3.43 | 8.33 µM | 3.34 | > 15 | 4.4 | > 15 µM | 4.81 | > 15 µM | 3.73 | > 15 µM
COCc1cc(C(=O)Nc2cc([C@H]3CC[C@@H](OC(=O)NC(C)C)C3)[nH]n2)n(C)n1 | 12.7 | > 100 µM | 4.74 | > 100 µM | 11.7 | 85.3 µM | 9.71 | 89 | 12.2 | 40.5 µM | 2.55 | 11.4 µM | 4.89 | 77.2 | 10.6 | 27.2 µM | 14.9 | 85 µM | 9.27 | 41.1 µM
Cc1nc2ccccc2c(/C=C/c2ccc(Cl)cc2)c1C(=O)/C=C/c1ccc(C(F)(F)F)cc1 | 0.722 | 1.97 µM | 0.282 | 1.56 µM | 0.659 | 3.57 µM | 0.299 | 1.46 | 0.41 | 1.88 µM | 0.36 | 1.38 µM | 1.26 | 2.61 | 0.627 | 2.17 µM | 0.369 | 1.29 µM | 0.623 | 2.1 µM
CC(C)O/N=C/c1cc(NC(=S)OC(C)C)ccc1Cl | – | > 72.4 µM | – | > 94.1 µM | – | > 79.2 µM | – | > 100 | – | > 95.6 µM | – | 57.6 µM | – | > 88.8 | – | > 61.7 µM | – | > 91.8 µM | – | > 100 µM
COc1cccc(NC(=O)c2sc3nc(C)c(C(O)c4ccccc4)cc3c2N)c1 (stereo not given) | 0.467 | 74.6 µM | 0.441 | 16.8 µM | 0.222 | 3.21 µM | 0.737 | 28.4 | 0.199 | 17.4 µM | 0.231 | 0.742 µM | 0.811 | 32.7 | 0.96 | 29.7 µM | 3.65 | 35.3 µM | 0.335 | 19.5 µM
NCC1OC(n2cnc3c(N)ncnc32)CC1O (stereo not given) | – | > 100 µM | – | > 100 µM | – | > 100 µM | – | > 100 | – | > 100 µM | – | > 100 µM | – | > 100 | – | > 100 µM | – | > 100 µM | – | > 100 µM
NCCCCCCCn1c2c(c3ccccc3c1=O)C(=O)c1ccccc1-2 | 1.86 | 4.82 µM | 1.43 | 3.58 µM | 1.8 | 4.31 µM | 2.01 | 4.27 | 1.68 | 3.06 µM | 1.38 | 2.87 µM | 2.34 | 6.58 | 2.33 | 5.68 µM | 1.75 | 3.23 µM | 1.7 | 3.14 µM
C=C1CCC2C3(C)COC(c4ccccc4)OC3CCC2(C)C1/C=C/C1=CCOC1=O (stereo not given) | 35.8 | > 100 µM | 3.4 | 11.9 µM | 1.86 | 8.61 µM | 19.9 | 69.4 | 6.4 | 36.7 µM | 1.27 | 3.91 µM | 3.63 | 16.3 | 4.81 | 15.9 µM | 9.15 | 26.6 µM | 6.29 | 20.8 µM
C=CC(=O)Nc1cc(C)ccc1Nc1nc(Nc2cc(OC)ncc2C)ncc1C(F)(F)F | 0.936 | > 100 µM | 0.244 | 1.25 µM | 0.869 | 4.86 µM | 1.2 | > 100 | 0.0668 | 0.686 µM | 0.637 | 3.7 µM | 1.34 | > 100 | 0.313 | 1.85 µM | 0.0883 | 1.08 µM | 0.585 | 6.07 µM
Cn1cnc([N+](=O)[O-])c1Sc1nc(N)nc2c1ncn2C1CC(O)C(CO)O1 (stereo not given) | – | > 100 µM | – | > 100 µM | – | > 100 µM | – | > 63.9 | – | > 58.6 µM | – | > 47.1 µM | – | > 83.1 | – | 25.7 µM | – | > 100 µM | – | > 100 µM
c1ccc(CN2COc3c(ccc4c3OCN(Cc3ccccc3)C4)C2)cc1 | 1 | > 100 µM | 0.802 | > 100 µM | 1.91 | > 100 µM | 0.96 | > 100 | 0.49 | > 100 µM | 2.33 | 7.52 µM | 0.333 | > 100 | 3.98 | > 100 µM | 1.26 | > 100 µM | 2.92 | > 100 µM
CC1CCCC(C(O)CC2CC(=O)NC(=O)C2)C1O (stereo not given) | – | > 100 µM | – | > 100 µM | – | > 100 µM | – | > 100 | – | > 100 µM | – | > 100 µM | – | > 100 | – | > 100 µM | – | > 100 µM | – | > 100 µM
